This note sets out measurements from patent publication US4161522A, “Method for blocking allergic responses” (The Regents of the University of California, priority 1978, dated 1979).

Ends that are not written are not given here. Peptide text beside a SMILES is read from it. * marks the point of attachment. Octanoyl = CCCCCCCC(=O)* Bounds are passed on as bounds.

The test system of data set [1] is Prausnitz-Kustner (P-K) reaction. Nature of the data set: Prausnitz-Kustner (P-K) reaction blocking assay in human volunteers. It counts as in vivo. To be noted: peptide approx. 6 μg/ml. On the procedure: The "blocking" activity of the polypeptides of the invention can be assayed by utilization of the classic Prausnitz-Kustner (P-K) reaction. In this classic method, a known allergic serum i.e., one that contains IgE specific for a known antigen or allergen is injected intradermally into a human volunteer. After waiting a period of time, e.g. 20 or more hours, the injected sites are then challenged with a prick or injection of a solution of an antigen that is specific for the IgE in the injected serum. Within the next 10 to 30 minutes a positive reaction is evidenced by the development of a wheal (and flare) at the injected site. The more extensive the diameter of the wheal the more intensive is the allergic reaction. That is, a more extensive wheal indicates a greater release of histamine into the tissues at the injected site. Conversely, the development of wheals of lesser diameter or the absence of any wheal at all indicates diminished allergic reaction and/or no allergic reaction at all. The P-K reaction as noted above is a classic test and is universally known and utilized by allergists.
All of these assays were performed using a single proven safe P-K donor serum that contains IgE specific for guinea pig allergens.
Peptide solutions were either injected intradermally 1 to 24 hours prior to the P-K serum, or mixed with dilutions of the P-K serum for simultaneous injection. Initial tests were performed using the P-K serum at from 1:4 to 1:200 dilutions. Further studies were run at a fixed P-K dilution of 1:32 while the invention peptide solutions were varied to contain from about 1 mM to […] of the peptide being tested. Injected sites on the volunteers were challenged by prick-puncture of guinea pig BCA 1:40 w/v (purchased from Berkeley Biologicals, Inc.).
Human volunteers were chosen who had serum IgE levels below 100 U/ml. (242 ng/ml.) which levels have been previously shown to assure successful P-K reactivity. […] P-K and skin tests were performed on the back and/or forearm. […]

The next data set has as its system wheal and flare reaction. Put plainly: Displacement of IgE: direct skin challenge in an individual sensitive to guinea pig antigens. It counts as in vivo, human. To be noted: single sensitive individual. The method, then:
It has also been determined that the active polypeptides of the invention appear to have the ability to "displace" IgE from mast cells as well as to prevent the binding of the IgE to the receptors. In a single test, an individual known to have extreme sensitivity to guinea pig antigens, that is a person with a high natural concentration of guinea-pig-antigen-sensitive IgE, was injected with polypeptides in accordance with the invention, and […] reaction to guinea pig antigen was noted.
Specifically, approximately 2 nM each of Asp-Ser-Asp-Pro-Arg and Ala-Asp-Ser-Asp-Pro-Arg were each intradermally injected into 3 marked sites. For comparison, TASME, as well as a control of the buffer diluent alone, was also each injected into 3 marked sites. At one, five and twenty-four hours subsequent to the polypeptide and control injection, one of each peptide and one diluent site were prick-puncture challenged with guinea pig antigen. […] However, at the twenty-four hour challenge, the wheal at the Asp-Ser-Asp-Pro-Arg site was approximately 45% smaller; while at the Ala-Asp-Ser-Asp-Pro-Arg site, the wheal was approximately 23% smaller.

Data set [2] deals with Wil-2WT human lymphoblastoid tissue culture cell line. Put plainly: Blocking of binding of I125-tagged IgE to Wil-2WT cells in vitro. On the procedure: In this regard, the 8 carbon chain acyl substituted peptide, octanoyl-Asp-Ser-Asp-Pro-Arg, as well as the […] acyl substituted peptide, acetoyl-Asp-Ser-Asp-Pro-Arg, were prepared by the method outlined in Example 10 above. These peptides were tested, in vitro, for their blocking ability with respect to the Wil-2WT human lymphoblastoid tissue culture cell line as follows.
Wil-2WT cells in culture medium were centrifuged at about 2000 RPM. The separated cells were mixed with minimal essential medium (MEM) and recentrifuged at 2000 RPM. The supernatent was decanted off completely and the residual cells were suspended in MEM+3% human serum albumin (HSA). The cell suspension was divided into suitable aliquots in reaction tubes. Blanks and control reaction tubes were also prepared. To various of the cell suspension tubes, were added known amount of Sha Myeloma E; Sha Myeloma E and octanoyl-Asp-Ser-Asp-Pro-Arg; or Sha Myeloma E and acetoyl-Asp-Ser-Asp-Pro-Arg. After mixing and standing at room temperature for approximately one hour, a known quantity of deaggregated IgE, tagged with radioactive iodine (I^125) was added to the tubes. After standing a short time, the capped tubes were mixed by slow inversion over an hour's time. […] The suspension was then counted on a gamma counter in order to determine the amount of tagged IgE bound to the Wil-2WT cells.

Another data set relates to DBA white mice. Nature of the data set: Acute toxicity in mice. Type of data set: in vivo. The note with it: for survival 24 to 72 hours post-injection: 1.4 ml total i.d./s.c./i.v./i.p. On the procedure: Acute toxicity was determined as follows:
DBA white mice (average weight 15 g.) were each injected with 1.4 ml. of a solution of the peptide in phosphate buffered saline, pH 7.4, as follows:
0.1 ml. × 3 intradermally
0.1 ml. × 3 subcutaneously
0.6 ml. intraperitoneally
The peptides and concentrations used were as follows: […]

In the case of “tosyl-L-arginine sarcosine methylester [TASME]”, in data set [1] (highest of six individuals, 0.1 ml per site), the “inhibition, individual high” value is recorded as 40%. Besides, the “inhibition, individual low” value in data set [1] (lowest of six individuals, 0.1 ml per site) is listed as 0%. Moreover, the “average % inhibition (P-K wheal)” value in data set [1] (six individuals, 0.1 ml intradermally, 0.05 ml diluted P-K serum containing 0.2 ng IgE, versus control wheal) turned out to be 24%. The “inhibition of the wheal and flare reaction” value in the data set with wheal and flare reaction (challenge at one and five hours after intradermal injection of approx. 2 nM) is reported as “No inhibition”. In the data set on wheal and flare reaction (challenge at twenty-four hours after intradermal injection of approx. 2 nM), the “wheal smaller than at buffered saline diluent site” value is “No reduction”.
Turning to `CCCCCCCC(=O)N[C@@H](CC(=O)O)C(=O)N[C@@H](CO)C(=O)N[C@@H](CC(=O)O)C(=O)N1CCC[C@H]1C(=O)N[C@@H](CCCNC(=N)N)C(=O)O` [octanoyl-Asp-Ser-Asp-Pro-Arg] (Octanoyl-DSDPR-OH), the “blocking of the binding of IgE to Wil-2WT cells, highest seen” value in data set [2] (as high as, in several procedures) is given as not above 25%.
For `C[C@H](N)C(=O)N[C@@H](CC(=O)O)C(=O)N[C@@H](CO)C(=O)N[C@@H](CC(=O)O)C(=O)N1CCC[C@H]1C(=O)N[C@@H](CCCNC(=N)N)C(=O)O` [Ala-Asp-Ser-Asp-Pro-Arg] (H-ADSDPR-OH), in the data set with DBA white mice (5 μg/ml (375 mg/kg), 6 mice), the “survival 24 to 72 hours post-injection” value is recorded as “all still living”; the “post-mortem gross and microscopic examination of tissues and organs” value was “no local or systemic toxico-logical abnormalities”.
Turning to `N=C(N)NCCC[C@H](NC(=O)[C@@H]1CCCN1C(=O)[C@H](CC(=O)O)NC(=O)[C@H](CO)NC(=O)[C@@H](N)CC(=O)O)C(=O)O` [Asp-Ser-Asp-Pro-Arg] (H-DSDPR-OH), in the data set on DBA white mice (10 μg/ml (1 mg/kg), 8 mice), the “survival 24 to 72 hours post-injection” value is “all still living”; the “post-mortem gross and microscopic examination of tissues and organs” value is “no local or systemic toxico-logical abnormalities”. In the data set on DBA white mice (13 μg/ml (1.3 mg/kg), 8 mice), the “survival 24 to 72 hours post-injection” value is reported as “all still living”; the “post-mortem gross and microscopic examination of tissues and organs” value was “no local or systemic toxico-logical abnormalities”.
Turning to acetoyl-Asp-Ser-Asp-Pro-Arg (Ac-DSDPR), the “blocking ability on Wil-2WT cells (in words)” value in data set [2] is “did not exhibit any blocking ability whatsoever”.
